Laboratory results: ChEMBL document CHEMBL1157396, “Dihydroagarofuranoid sesquiterpenes, a lignan derivative, a benzenoid, and antitubercular constituents from the stem of Microtropis japonica” (2008)
≈ marks a conversion by molar mass, not a printed value.

Tested on: Mycobacterium tuberculosis
Assay: Antitubercular activity against Mycobacterium tuberculosis H37Rv after 2 weeks by agar dilution method
Format: functional
Details: 336 h

SMILES: COc1cc(C(=O)C(CO)c2cc(OC)c(O)c(OC)c2)ccc1O (stereo not drawn) [5-METHOXYEVOFOLIN B]
- MIC: 215 µM (≈ 74.9 µg/mL)

SMILES: COc1cc(/C=C\C(=O)OC[C@H](Cc2ccc(O)c(OC)c2)[C@H](COC(=O)/C=C\c2ccc(O)c(OC)c2)Cc2ccc(O)c(OC)c2)ccc1O
- MIC: 122 µM (≈ 87.2 µg/mL)

SMILES: CC(=O)O[C@H]1C[C@@H](C)[C@]23OC(C)(C)[C@H]([C@H](OC(=O)c4ccccc4)[C@H](OC(=O)c4ccccc4)[C@]2(COC(=O)c2ccccc2)[C@H]1OC(C)=O)[C@H]3OC(C)=O
- MIC: 79.3 µM (≈ 60 µg/mL)

SMILES: CC(=O)O[C@@H]1[C@H]2C[C@H](OC(=O)c3ccccc3)[C@]3(COC(=O)c4ccccc4)[C@@H](OC(C)=O)[C@@H](OC(=O)c4ccccc4)C[C@@H](C)[C@@]13OC2(C)C [FOKIENAGAROFURAN A]
- MIC: 85.9 µM (≈ 60 µg/mL)

SMILES: CC[C@H](CC[C@@H](C)[C@H]1CC[C@H]2[C@@H]3CC=C4C[C@@H](O)CC[C@]4(C)[C@H]3CC[C@]12C)C(C)C [BETA-SITOSTEROL]
- MIC: > 400 µM

SMILES: COc1cc(C=O)cc(OC)c1O [SYRINGALDEHYDE]
- MIC: > 400 µM

SMILES: COc1cc(C(=O)O)ccc1O [VANILLIC ACID]
- MIC: 238 µM (≈ 40 µg/mL)

SMILES: CC(=O)O[C@H]1C[C@@H](COC(=O)c2ccccc2)[C@]23OC(C)(C)[C@H](C[C@H](OC(=O)c4ccccc4)[C@]2(C)[C@H]1OC(C)=O)[C@H]3OC(=O)c1ccccc1
- MIC: 95 µM (≈ 66.4 µg/mL)

SMILES: CCOc1cc(C=O)ccc1O [ETHYL VANILLIN]
- MIC: > 400 µM

SMILES: CC(=O)O[C@H]1[C@@H](OC(=O)c2ccccc2)C[C@@H](C)[C@]23OC(C)(C)[C@H](C[C@H](OC(=O)c4ccccc4)[C@]12COC(=O)c1ccccc1)[C@H]3OC(=O)c1ccccc1 [FOKIENAGAROFURAN D]
- MIC: 105 µM (≈ 79.9 µg/mL)

SMILES: COc1cc(C=O)ccc1O [VANILLIN]
- MIC: > 400 µM

SMILES: COc1cc(/C=C/C(=O)OC[C@H](Cc2ccc(O)c(OC)c2)[C@H](COC(=O)/C=C/c2ccc(O)c(OC)c2)Cc2ccc(O)c(OC)c2)ccc1O
- MIC: 126 µM (≈ 90.1 µg/mL)

SMILES: COc1cc(C(=O)CCO)ccc1O
- MIC: 153 µM (≈ 30 µg/mL)

SMILES: COc1cc(O)c2c(c1)O[C@H](c1ccc(O)cc1)CC2=O [SAKURANETIN]
- MIC: 209 µM (≈ 59.8 µg/mL)

SMILES: CC(=O)OC[C@]12[C@@H](OC(=O)c3ccccc3)C[C@@H]3[C@@H](OC(C)=O)[C@]1(OC3(C)C)[C@H](C)C[C@H](OC(C)=O)[C@@H]2O [CELAHIN C]
- MIC: 31.3 µM (≈ 16.7 µg/mL)

SMILES: COc1cc(/C=C/C=O)ccc1O [CONIFERYL ALDEHYDE]
- MIC: > 400 µM

SMILES: COc1cc2ccc(=O)oc2cc1OC [SCOPARONE]
- MIC: 388 µM (≈ 80 µg/mL)

SMILES: COc1cc(C(=O)C(CO)c2ccc(O)c(OC)c2)ccc1O (stereo not drawn) [EVOFOLIN B]
- MIC: 235 µM (≈ 74.8 µg/mL)

SMILES: CC(=O)OC[C@]12[C@@H](OC(=O)c3ccccc3)C[C@@H]3[C@@H](OC(=O)c4ccccc4)[C@]1(OC3(C)C)[C@H](C)C[C@H](OC(=O)c1ccccc1)[C@@H]2OC(C)=O
- MIC: 39.6 µM (≈ 27.7 µg/mL)

SMILES: CC[C@H](CC[C@@H](C)[C@H]1CC[C@H]2[C@@H]3C(=O)C=C4C[C@@H](O)CC[C@]4(C)[C@H]3CC[C@]12C)C(C)C
- MIC: 128 µM (≈ 54.9 µg/mL)

SMILES: CC(=O)OC[C@]12[C@@H](OC(=O)c3ccccc3)C[C@@H]3[C@@H](OC(C)=O)[C@]1(OC3(C)C)[C@H](C)C[C@H](O)[C@@H]2OC(C)=O [SALASOL A]
- MIC: 28.2 µM (≈ 15 µg/mL)

SMILES: CC[C@@H](CO)NCCN[C@@H](CC)CO [ETHAMBUTOL]
- MIC: 30.6 µM (≈ 6.25 µg/mL)

SMILES: CN1CCCC1=O [METHYLPYRROLIDONE]
- MIC: > 400 µM
